Assay results: patent publication US20260347372A1, “SMALL MOLECULE INHIBITORS OF KRAS G12D MUTANT” (MERCK SHARP & DOHME LLC, priority 2023, published 2026)

Columns and labels:
[1] = target: KRAS G12C (Homo sapiens, UniProt P01116, C118S/C51S/C80L/G12C); assay: SOS-catalyzed nucleotide exchange assay, KRAS G12C (Procedure A); type: biochemical; settings: GNE
Text: (§1) Procedure for SOS-Catalyzed Nucleotide Exchange Assay for KRAS-WT, G12C/D/V, G13D, HRAS, and NRAS (Procedure A)
(§2) Recombinant KRAS-G12C protein used in this assay has an additional triple mutation (C51S/C80L/C118S). Whereas KRAS-WT, G12D/V, G13D, HRAS and NRAS are in context of their WT protein sequence background. Specifically, the SOS-catalyzed nucleotide exchange assay utilizes a preformed TR-FRET complex containing a specific biotinylated RAS protein (KRAS-WT, G12C/V/D, G13D, HRAS, NRAS; described above) with Bodipy-GDP, and Terbium-streptavidin. Compounds are preincubated with this complex for 60 minutes. Subsequently, recombinant human SOS protein and unlabeled GTP are added to initiate the exchange reaction. Small molecule inhibitors stabilize the Bodipy-GDP complex whereas the untreated protein rapidly exchanges Bodipy-GDP for unlabeled GTP resulting in reduced TR-FRET signal.
(§3) To assemble the preformed TR-FRET complexes, each biotinylated RAS protein is diluted to 2 μM in an EDTA Buffer (20 mM HEPES pH 7.5, 50 mM sodium chloride, 10 mM EDTA, and 0.01% Tween) and incubated at room temperature for one hour. This mixture is then further diluted to 90 nM in an Assay Buffer (20 mM HEPES pH 7.5, 150 mM sodium chloride, 10 mM magnesium chloride, and 0.005% Tween) containing 15 nM of Terbium-Streptavidin (Invitrogen, catalog #PV3577) and 900 nM of Bodipy-GDP (Invitrogen, catalog #G22360) and incubated at room temperature for six hours. It should be noted that this preformed TR-FRET complex for each of the RAS protein were made ahead of time, aliquoted and stored at −80° C. until the day of the experiment.
(§4) Each test compound (10 mM stock in DMSO) is diluted in DMSO to make a final-10-point, 3-fold dilution and is acoustically dispensed into a 384-well assay plate (Corning, catalog #3820) using an Echo 550 (Labcyte). Each well of the assay plate receives 3 μL of a specific 3×RAS preformed TR-FRET complex and 3 μL of Assay Buffer and is incubated at room temperature for 60 minutes (preincubation time). Each well then receives 3 μL of 3× recombinant human SOS protein and GTP (Sigma, G8877) in Assay Buffer and is incubated at room temperature for 30 minutes (G13D), 60 minutes (KRAS WT/G12C/D, H/NRAS) or 90 minutes for G12V. The final reaction in each well of 9 μL consists of 3 mM GTP, specific Ras and SOS proteins in the following concentrations: KRAS-G12C/SOS=3 nM/40 nM, KRAS-WT and G12D/SOS=1 nM/40 nM, KRAS-G12V/SOS=1.25 nM/160 nM, KRAS-G13D/SOS=1.25 nM/0 nM, HRAS and NRAS=1.25 nM/40 nM.
(§5) The time-resolved fluorescence resonance energy transfer (TR-FRET) signal is measured on an Envision (PerkinElmer) plate reader: Excitation filter=340 nm; emission1=495 nm; emission2=520 nm; dichroic mirror=D400/D505; delay time=[…]. The signal of each well is determined as the ratio of the emission at 520 nm to that at 495 nm. Percent effect of each well is determined after normalization to control wells containing DMSO (no effect) or a saturating concentration of inhibitor (max effect). The apparent effect as a function of compound concentration is fit to a four-parameter logistic equation.
(§6) For Example No. 14, nucleotide exchange assays for KRAS G12D, WT, G12C, and G12V were performed according to Procedure B. All the other compounds were tested according to Procedure A.

[2] = target: KRAS G12V (Homo sapiens, UniProt P01116, G12V); assay: SOS-catalyzed nucleotide exchange assay, KRAS G12V (Procedure A); type: biochemical; settings: GNE
Procedure, shortened: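 Biotinylated KRAS G12V was loaded with Bodipy-GDP alongside Terbium-streptavidin to form a TR-FRET complex, which was preincubated with compounds for 60 minutes in 384-well plates. Human SOS protein and unlabeled GTP were then added for 90 minutes, giving final concentrations of 1.25 nM KRAS-G12V, 160 nM SOS and 3 mM GTP. The 520/495 nm emission ratio was read on an Envision.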

[3] = target: KRAS G12D (Homo sapiens, UniProt P01116, G12D); assay: SOS-catalyzed nucleotide exchange assay, KRAS G12D (Procedure A); type: biochemical; settings: guanine nucleotide exchange (GNE)
Procedure, shortened: (§7)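 Compounds were preincubated 60 min with a biotinylated RAS·Bodipy-GDP/Tb-streptavidin TR-FRET complex, and exchange was started with human SOS plus 3 mM GTP at RT. RAS/SOS: G12C 3 nM/40 nM, WT and G12D 1 nM/40 nM, all 60 min; G13D 1.25 nM/0 nM, 30 min. 520/495 ratio normalized to DMSO and saturating inhibitor, four-parameter fit.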

[4] = target: NRAS (Homo sapiens, UniProt P01111); assay: SOS-catalyzed nucleotide exchange assay, NRAS (Procedure A); type: biochemical; settings: GNE
Text: as §1, §2, §3, §4, §5, §6

[5] = target: T1, AsPC-1 cells (Homo sapiens, UniProt P01116, G12D); assay: Cellular phospho-ERK assay, AsPC-1 cells (KRAS G12D); type: cell-based; settings: 2 hours, read-out: AsPC1 pERK IC50
T1 construct: p-ERK/total ERK AlphaSureFire read-out
Procedure, shortened: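 PANC08.13 or AsPC-1 cells (homozygous KRAS G12D) were seeded overnight, then treated for 2 h at 37 °C with a 10-point 1:3 titration from 30 μM. Lysates were assayed by AlphaLISA SureFire for p-ERK and total ERK. IC50 came from a 4-parameter fit of the p-ERK/total ERK ratio.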

[6] = target: HRAS (Homo sapiens, UniProt P01112); assay: SOS-catalyzed nucleotide exchange assay, HRAS (Procedure A); type: biochemical; settings: GNE
Text: as §1, §2, §3, §4, §5, §6

[7] = target: KRAS WT (Homo sapiens, UniProt P01116); assay: SOS-catalyzed nucleotide exchange assay, KRAS WT (Procedure A); type: biochemical; settings: GNE
Procedure, shortened: as §7

[8] = target: KRAS G13D (Homo sapiens, UniProt P01116, G13D); assay: SOS-catalyzed nucleotide exchange assay, KRAS G13D (Procedure A); type: biochemical; settings: GNE
Text: as §1, §2, §3, §4, §5, §6

Chain of KRAS G12V (P01116 with tags, fused parts or gaps isoform P01116-2 G12V): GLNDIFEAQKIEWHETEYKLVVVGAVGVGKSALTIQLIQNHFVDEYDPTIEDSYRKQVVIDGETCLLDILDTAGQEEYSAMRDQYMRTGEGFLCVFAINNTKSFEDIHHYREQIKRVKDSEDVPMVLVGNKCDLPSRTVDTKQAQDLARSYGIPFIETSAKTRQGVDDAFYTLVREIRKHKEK
T1 sequence (P01116 1-188 isoform P01116-2 G12D): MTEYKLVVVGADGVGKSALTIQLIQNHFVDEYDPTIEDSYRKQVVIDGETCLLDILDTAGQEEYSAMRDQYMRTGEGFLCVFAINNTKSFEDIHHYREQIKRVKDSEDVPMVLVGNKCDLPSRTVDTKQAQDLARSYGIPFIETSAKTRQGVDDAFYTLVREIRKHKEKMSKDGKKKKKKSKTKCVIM
Chain of KRAS G13D (P01116 with tags, fused parts or gaps isoform P01116-2 G13D): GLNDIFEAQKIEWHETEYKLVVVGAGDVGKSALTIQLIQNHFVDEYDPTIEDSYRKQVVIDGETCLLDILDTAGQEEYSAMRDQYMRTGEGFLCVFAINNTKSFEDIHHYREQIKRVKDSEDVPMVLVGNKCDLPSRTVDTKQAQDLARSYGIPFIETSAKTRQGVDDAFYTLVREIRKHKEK
Chain of HRAS (P01112 with tags, fused parts or gaps): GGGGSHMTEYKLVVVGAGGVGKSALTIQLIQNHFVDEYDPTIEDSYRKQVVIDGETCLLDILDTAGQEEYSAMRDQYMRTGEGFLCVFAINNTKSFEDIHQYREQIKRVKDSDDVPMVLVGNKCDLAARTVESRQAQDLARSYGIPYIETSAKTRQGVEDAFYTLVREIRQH
Chain of KRAS G12D (P01116 with tags, fused parts or gaps isoform P01116-2 G12D): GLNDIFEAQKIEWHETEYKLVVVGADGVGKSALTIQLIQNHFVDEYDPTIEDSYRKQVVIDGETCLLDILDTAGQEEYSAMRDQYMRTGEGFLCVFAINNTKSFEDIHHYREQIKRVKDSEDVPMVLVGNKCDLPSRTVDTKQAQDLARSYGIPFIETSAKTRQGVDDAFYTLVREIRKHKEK
Chain of KRAS G12C (P01116 with tags, fused parts or gaps isoform P01116-2 G12C/C51S/C80L/C118S): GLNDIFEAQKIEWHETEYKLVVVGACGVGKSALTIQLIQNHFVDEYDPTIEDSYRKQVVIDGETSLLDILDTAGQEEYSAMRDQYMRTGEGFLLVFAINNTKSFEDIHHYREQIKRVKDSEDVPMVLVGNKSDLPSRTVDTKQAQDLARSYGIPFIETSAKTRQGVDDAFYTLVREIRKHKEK
Chain of NRAS (P01111 with tags, fused parts or gaps): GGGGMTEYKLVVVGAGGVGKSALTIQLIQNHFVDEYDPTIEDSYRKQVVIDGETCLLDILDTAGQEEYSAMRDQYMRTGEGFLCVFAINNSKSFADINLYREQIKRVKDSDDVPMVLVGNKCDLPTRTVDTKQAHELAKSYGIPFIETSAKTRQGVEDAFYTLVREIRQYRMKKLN
Chain of KRAS WT (P01116 with tags, fused parts or gaps isoform P01116-2): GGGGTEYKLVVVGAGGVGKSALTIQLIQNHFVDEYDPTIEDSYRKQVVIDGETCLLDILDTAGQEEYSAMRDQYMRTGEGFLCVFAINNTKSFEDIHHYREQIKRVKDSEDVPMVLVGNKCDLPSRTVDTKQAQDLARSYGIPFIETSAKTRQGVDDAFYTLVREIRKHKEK

Row | SMILES | IC50 [1] [nM] | IC50 [2] [nM] | IC50 [3] [nM] | IC50 [4] [nM] | IC50 [5] [nM] | IC50 [6] [nM] | IC50 [7] [nM] | IC50 [8] [nM]
1 | Cc1cc2[nH]ncc2c(-c2nccc3c2sc2nc(OCC4(C)CNC(=O)C4)nc(N4C[C@H]5CC[C@@H](C4)N5)c23)c1C(F)(F)F (stereo partly drawn) [Ex-37, 4-(((4-((1R,5S)-3,8-diazabicyclo[3.2.1]octan-3-yl)-8-(6-methy1-5-(trifluoromethyl)-1H-indazol-4-yl)pyrido[4′,3′:4,5]thieno[2,3-d]pyrimidin-2-yl)oxy)methyl)-4-methylpyrrolidin-2-one] | > 11100 | > 11100 | 1280 | > 11100 | > 30000 | > 11100 | > 11100 | > 11100
2 | C#Cc1csc2cc3[nH]ncc3c(-c3nccc4c3sc3nc(OC[C@@]56CCCN5C[C@H](F)C6)nc(N5C[C@H]6CC[C@@H](C5)N6)c34)c12 [Ex-54, 4-((1R,5S)-3,8-diazabicyclo[3.2.1]octan-3-yl)-8-(5-ethynyl-1H-thieno[3,2-f]indazol-4-yl)-2-(((2R,7aS)-2-fluorotetrahydro-1H-pyrrolizin-7a(5H)-yl)methoxy)pyrido[4′,3′:4,5]thieno[2,3-d]pyrimidine] | 22.7 | 62.7 | 1.92 | > 11100 | 31.4 | > 11100 | 80.7 | 14.8
3 | C#Cc1cccc2cc3[nH]ncc3c(-c3nccc4c3sc3nc(OC[C@@]56CCCN5C[C@H](F)C6)nc(N5C[C@H]6CC[C@@H](C5)N6)c34)c12 [Ex-55, 4-((1R,5S)-3,8-diazabicyclo[3.2.1]octan-3-yl)-8-(5-ethynyl-1H-benzo[f]indazol-4-yl)-2-(((2R,7aS)-2-fluorotetrahydro-1H-pyrrolizin-7a(5H)-yl)methoxy)pyrido[4′,3′:4,5]thieno[2,3-d]pyrimidine] | 73.9 | 105 | 1.31 | > 11100 | 25 | > 11100 | 148 | 42.5
4 | Cc1cc2[nH]ncc2c(-c2nccc3c2sc2nc(OC[C@@]45CCCN4C[C@H](F)C5)nc(N4CC5COCC(C4)N5)c23)c1C(F)(F)F [Ex-65, 7-(2-(((2R,7aS)-2-fluorotetrahydro-1H-pyrrolizin-7a(5H)-yl)methoxy)-8-(6-methyl-5-(trifluoromethyl)-1H-indazol-4-yl)pyrido[4′,3′:4,5]thieno[2,3-d]pyrimidin-4-yl)-3-oxa-7,9-diazabicyclo[3.3.1]nonane] | 1960 | > 11100 | 128 | > 11100 | 1700 | > 11100 | 8790 | 2740
5 | Cc1cc2[nH]ncc2c(-c2nccc3c2sc2nc(OC[C@@]45CCCN4C[C@H](F)C5)nc(N4CC5CC(C4)N5)c23)c1C(F)(F)F [Ex-67, 4-(3,6-diazabicyclo[3.1.1]heptan-3-yl)-2-(((2R,7aS)-2-fluorotetrahydro-1H-pyrrolizin-7a(5H)-yl)methoxy)-8-(6-methyl-5-(trifluoromethyl)-1H-indazol-4-yl)pyrido[4′,3′:4,5]thieno[2,3-d]pyrimidine] | 265 | 672 | 13.1 | > 11100 | 699 | > 11100 | 856 | 323

Results, then the molecule that gave them:

Row | IC50 [1] [nM] | IC50 [2] [nM] | IC50 [3] [nM] | IC50 [4] [nM] | IC50 [5] [nM] | IC50 [6] [nM] | IC50 [7] [nM] | IC50 [8] [nM] | SMILES
6 | > 11100 | > 11100 | 4120 | > 11100 | 28400 | > 11100 | > 11100 | > 11100 | Cc1cc2[nH]ncc2c(-c2nccc3c2sc2nc(OCC4CCS(=O)(=O)CC4)nc(N4C[C@H]5CC[C@@H](C4)N5)c23)c1C(F)(F)F [Ex-36, 4-(((4-((1R,5S)-3,8-diazabicyclo[3.2.1]octan-3-yl)-8-(6-methy1-5-(trifluoromethyl)-1H-indazol-4-yl)pyrido[4′,3′:4,5]thieno[2,3-d]pyrimidin-2-yl)oxy)methyl)tetrahydro-2H-thiopyran 1,1-dioxide]
7 | > 11100 | > 11100 | 3790 | > 11100 | > 30000 | > 11100 | > 11100 | 3550 | Cc1cc2[nH]ncc2c(-c2nccc3c2sc2nc(OCC4(C#N)CCOCC4)nc(N4C[C@H]5CC[C@@H](C4)N5)c23)c1C(F)(F)F [Ex-38, 4-(((4-((1R,5S)-3,8-diazabicyclo[3.2.1]octan-3-yl)-8-(6-methyl-5-(trifluoromethyl)-1H-indazol-4-yl)pyrido[4′,3′:4,5]thieno[2,3-d]pyrimidin-2-yl)oxy)methyl)tetrahydro-2H-pyran-4-carbonitrile]
8 | > 11100 | > 11100 | 2420 | > 11100 | 12800 | > 11100 | > 11100 | > 11100 | Cc1cc2[nH]ncc2c(-c2nccc3c2sc2nc(OCC4(C)CS(=O)(=O)C4)nc(N4C[C@H]5CC[C@@H](C4)N5)c23)c1C(F)(F)F [Ex-39, 3-(((4-((1R,5S)-3,8-diazabicyclo[3.2.1]octan-3-yl)-8-(6-methyl-5-(trifluoromethyl)-1H-indazol-4-yl)pyrido[4′,3′:4,5]thieno[2,3-d]pyrimidin-2-yl)oxy)methyl)-3-methylthietane 1,1-dioxide]
9 | 182 | 1370 | 9.25 | > 11100 | 217 | > 11100 | 1650 | 265 | Fc1ccc2cc3[nH]ncc3c(-c3nccc4c3sc3nc(OC[C@@]56CCCN5C[C@H](F)C6)nc(N5C[C@H]6CC[C@@H](C5)N6)c34)c2c1Cl [Ex-59, 4-((1R,5S)-3,8-diazabicyclo[3.2.1]octan-3-yl)-8-(5-chloro-6-fluoro-1H-benzo[f]indazol-4-yl)-2-(((2R,7aS)-2-fluorotetrahydro-1H-pyrrolizin-7a(5H)-yl)methoxy)pyrido[4′,3′:4,5]thi-eno[2,3-d]pyrimidine]
